# In patent US6825187B2, “Carbapenem derivatives of quarternary salt type” (Meiji Seika Kaisha, Ltd., priority 2000, dated 2004):
# Structures can show the parent of a compound that is named as a salt.
# Experiments:
# H. influenzae PRC 2 = assay: Antimicrobial activities, MIC; format: cell-based; details: inoculants 10^6 CFU/ml; for minimum inhibiting concentrations (MIC): Sensitivity Disk agar-N+5% Horse blood
# Method: (§1) The minimum inhibiting concentrations (MIC, μg/ml) of representative compounds, among the novel carbapenem derivatives of the present invention, to various pathogenic bacteria were measured in accordance with the method described in CHEMOTHERAPY, vol. 16, No. 1, 99, 1968. The culture medium for the measurement is Sensitivity Disk agar-N+5% Horse blood, and the amount of inoculants used is 10^6 CFU/ml.
# E. hirae ATCC 8043 = assay: Antimicrobial activities, MIC; format: cell-based; details: inoculants 10^6 CFU/ml; for minimum inhibiting concentrations (MIC): Sensitivity Disk agar-N+5% Horse blood
# Method: as §1
# [1] = test system: S. aureus M 126 (Methicillin-hyperresistant strain); assay: Antimicrobial activities, MIC; format: cell-based; details: Sensitivity Disk agar-N+5% Horse blood, inoculants 10^6 CFU/ml
# Method: as §1
# E. coli NIHJ JC-2 = assay: Antimicrobial activities, MIC; format: cell-based; details: inoculants 10^6 CFU/ml; for minimum inhibiting concentrations (MIC): Sensitivity Disk agar-N+5% Horse blood
# Method: as §1
# P. vulgaris GN 7919 = assay: Antimicrobial activities, MIC; format: cell-based; details: inoculants 10^6 CFU/ml; for minimum inhibiting concentrations (MIC): Sensitivity Disk agar-N+5% Horse blood
# Method: as §1
# [2] = test system: S. epidermidis ATCC 14990; assay: Antimicrobial activities, MIC; format: cell-based; details: inoculants 10^6 CFU/ml; for minimum inhibiting concentrations (MIC): Sensitivity Disk agar-N+5% Horse blood
# Method: as §1
# S. aureus 209P JC-1 = assay: Antimicrobial activities, MIC; format: cell-based; details: Sensitivity Disk agar-N+5% Horse blood, inoculants 10^6 CFU/ml
# Method: as §1
# H. influenzae PRC 44 = assay: Antimicrobial activities, MIC; format: cell-based; details: inoculants 10^6 CFU/ml; for minimum inhibiting concentrations (MIC): Sensitivity Disk agar-N+5% Horse blood
# Method: as §1
# C. freundii GN 346 = assay: Antimicrobial activities, MIC; format: cell-based; details: inoculants 10^6 CFU/ml; for minimum inhibiting concentrations (MIC): Sensitivity Disk agar-N+5% Horse blood
# Method: as §1
# E. faecalis W-73 = assay: Antimicrobial activities, MIC; format: cell-based; details: inoculants 10^6 CFU/ml; for minimum inhibiting concentrations (MIC): Sensitivity Disk agar-N+5% Horse blood
# Method: as §1
# B. catarrhalis W-0500 = assay: Antimicrobial activities, MIC; format: cell-based; details: inoculants 10^6 CFU/ml; for minimum inhibiting concentrations (MIC): Sensitivity Disk agar-N+5% Horse blood
# Method: as §1
# K. pneumoniae PC 1602 = assay: Antimicrobial activities, MIC; format: cell-based; details: inoculants 10^6 CFU/ml; for minimum inhibiting concentrations (MIC): Sensitivity Disk agar-N+5% Horse blood
# Method: as §1
# [3] = test system: S. pneumoniae PRC 9 (Penicillin-hyperresistant strain); assay: Antimicrobial activities, MIC; format: cell-based; details: Sensitivity Disk agar-N+5% Horse blood, inoculants 10^6 CFU/ml
# Method: as §1
# mice (ICR, male) = assay: Acute Toxicity Test; format: in vivo; details: intraveneously administered, 2000 mg/kg, one group of three mice
# Method: The compound of Example 3 according to the present invention was intraveneously administered at a dose of 2000 mg/kg to mice (ICR, male) (one group consisting of three mice).
# [4] = Staphylococcus aureus, read-out: minimum inhibiting concentrations (MIC)
SMILES,minimum inhibiting concentrations (MIC) (H. influenzae PRC 2),minimum inhibiting concentrations (MIC) (E. hirae ATCC 8043),minimum inhibiting concentrations (MIC) [1],minimum inhibiting concentrations (MIC) (E. coli NIHJ JC-2),minimum inhibiting concentrations (MIC) (P. vulgaris GN 7919),minimum inhibiting concentrations (MIC) [2],minimum inhibiting concentrations (MIC) (S. aureus 209P JC-1),minimum inhibiting concentrations (MIC) (H. influenzae PRC 44),minimum inhibiting concentrations (MIC) (C. freundii GN 346),minimum inhibiting concentrations (MIC) (E. faecalis W-73),minimum inhibiting concentrations (MIC) (B. catarrhalis W-0500),minimum inhibiting concentrations (MIC) (K. pneumoniae PC 1602),minimum inhibiting concentrations (MIC) [3],also measured
"CSc1c2sc(C3=C(C(=O)[O-])N4C(=O)[C@H]([C@@H](C)O)[C@H]4[C@H]3C)cn2c[n+]1CCCN.Cl [Example 14, (1S,5R,6S)-2-[6-(3-aminopropyl)-7-methylthioimidazo[5,1-b]thiazolium-2-yl]-6-((1R)-1-hydroxyethyl)-1-methyl-1-carbapen-2-em-3-carboxylate (intramolecular salt) hydrochloride]",0.05 µg/mL,0.39 µg/mL,0.39 µg/mL,0.05 µg/mL,0.39 µg/mL,<0.025 µg/mL,<0.025 µg/mL,0.78 µg/mL,0.10 µg/mL,0.20 µg/mL,0.025 µg/mL,0.10 µg/mL,0.025 µg/mL,
"C[C@@H](O)[C@H]1C(=O)N2C(C(=O)[O-])=C(c3cn4c[n+](C)cc4s3)[C@H](C)[C@H]12 [Compound B, (1S,5R,6S)-6-((1R)-1-Hydroxyethyl)-1-methyl-2-(6-methylimidazo[5,1-b]thiazolium-2-yl)-1-carbapen-2-em-3-carboxylate (intramolecular salt), reference compound]",0.10 µg/mL,0.78 µg/mL,3.13 µg/mL,<0.025 µg/mL,0.20 µg/mL,<0.025 µg/mL,<0.025 µg/mL,0.39 µg/mL,0.10 µg/mL,0.20 µg/mL,<0.025 µg/mL,0.10 µg/mL,0.05 µg/mL,
"CSc1c2sc(C3=C(C(=O)[O-])N4C(=O)[C@H]([C@@H](C)O)[C@H]4[C@H]3C)cn2c[n+]1C[C@H](O)CN.Cl [Example 99, (1S,5R,6S)-2-[6-((2R)-3-amino-2-hydroxy)propyl-7-methylthioimidazo[5,1-b]thiazolium-2-yl]-6-((1R)-1-hydroxyethyl)-1-methyl-1-carbapen-2-em-3-carboxylate (intramolecular salt) hydrochloride]",0.10 µg/mL,0.39 µg/mL,0.78 µg/mL,0.05 µg/mL,0.39 µg/mL,<0.025 µg/mL,<0.025 µg/mL,0.78 µg/mL,0.20 µg/mL,0.20 µg/mL,0.05 µg/mL,0.10 µg/mL,0.05 µg/mL,
"C[C@@H](O)[C@H]1C(=O)N2C(C(=O)O)=C(SCCN=CN)C[C@H]12 [Compound A, Imipenem, reference compound]",,,,,,,,,,,,,,"MIC (H. influenzae PRC 2; Haemophilus influenzae, PRC2, Sensitivity Disk agar-N+5% Horse blood, read-out: minimum inhibiting concentrations (MIC)): 0.79 µg/mL; MIC (E. hirae ATCC 8043; Enterococcus hirae, ATCC8043, Sensitivity Disk agar-N+5% Horse blood, read-out: minimum inhibiting concentrations (MIC)): 0.78 µg/mL; MIC [1, 4]: 25 µg/mL; MIC (E. coli NIHJ JC-2; Escherichia coli, NIHJJC2, Sensitivity Disk agar-N+5% Horse blood, read-out: minimum inhibiting concentrations (MIC)): 0.1 µg/mL; MIC (P. vulgaris GN 7919; Proteus vulgaris, GN7919, Sensitivity Disk agar-N+5% Horse blood, read-out: minimum inhibiting concentrations (MIC)): 0.1 µg/mL; MIC ([2]; Staphylococcus epidermidis, ATCC14990, Sensitivity Disk agar-N+5% Horse blood, read-out: minimum inhibiting concentrations (MIC)): < 0.025 µg/mL; MIC (S. aureus 209P JC-1; [4]): < 0.025 µg/mL; MIC (H. influenzae PRC 44; Haemophilus influenzae, PRC44, Sensitivity Disk agar-N+5% Horse blood, read-out: minimum inhibiting concentrations (MIC)): 12.5 µg/mL; MIC (C. freundii GN 346; Citrobacter freundii, GN346, Sensitivity Disk agar-N+5% Horse blood, read-out: minimum inhibiting concentrations (MIC)): 0.2 µg/mL; MIC (E. faecalis W-73; Enterococcus faecalis, W73, Sensitivity Disk agar-N+5% Horse blood, read-out: minimum inhibiting concentrations (MIC)): 0.78 µg/mL; MIC (B. catarrhalis W-0500; Moraxella catarrhalis, W0500, Sensitivity Disk agar-N+5% Horse blood, read-out: minimum inhibiting concentrations (MIC)): 0.05 µg/mL; MIC (K. pneumoniae PC 1602; Klebsiella pneumoniae, PC1602, Sensitivity Disk agar-N+5% Horse blood, read-out: minimum inhibiting concentrations (MIC)): 0.2 µg/mL; MIC ([3]; Streptococcus pneumoniae, read-out: minimum inhibiting concentrations (MIC)): 0.2 µg/mL"
"CSc1c2sc(C3=C(C(=O)[O-])N4C(=O)[C@H]([C@@H](C)O)[C@H]4[C@H]3C)cn2c[n+]1C [Example 2, (1S,5R,6S)-6-((1R)-1-hydroxyethyl)-1-methyl-2-(6-methyl-7-methylthioimidazo[5,1-b]thiazolium-2-yl)-1-carbapen-2-em-3-carboxylate (intramolecular salt)]",0.05 µg/mL,0.78 µg/mL,1.56 µg/mL,0.025 µg/mL,0.20 µg/mL,<0.025 µg/mL,<0.025 µg/mL,0.20 µg/mL,0.10 µg/mL,0.20 µg/mL,0.025 µg/mL,0.10 µg/mL,0.025 µg/mL,
"CSc1c2sc(C3=C(C(=O)[O-])N4C(=O)[C@H]([C@@H](C)O)[C@H]4[C@H]3C)cn2c[n+]1CC(N)=O [Example 3, (1S,5R,6S)-2-(6-carbamoylmethyl-7-methylthioimidazo[5,1-b]thiazolium-2-yl)-6-((1R)-1-hydroxyethyl)-1-methyl-1-carbapen-2-em-3-carboxylate (intramolecular salt)]",0.05 µg/mL,0.39 µg/mL,1.56 µg/mL,0.025 µg/mL,0.20 µg/mL,<0.025 µg/mL,<0.025 µg/mL,0.20 µg/mL,0.20 µg/mL,0.20 µg/mL,0.025 µg/mL,0.10 µg/mL,0.025 µg/mL,"survival in acute toxicity test (mice (ICR, male)): all the mice survived"
